Eight compounds from US10040804B2, “Compounds targeting proteins, compositions, methods, and uses thereof” (BioTheryX, Inc., priority 2016, dated 2018) can be followed below.

In assay [1] the test system is IL-1β. Put plainly: IL-1β expression in LPS stimulated PBMCs (Meso Scale). Type of assay: cell-based, human. To be noted: Homo sapiens, PBMC; for inhibition at 0.1 µM: compound concentration 0.1 μM. As for the experimental part: FIGS. 5 and 9A are graphs showing IL-1-beta expression in LPS stimulated peripheral blood mononuclear cells (PBMCs), PBMCs were plated in 96-well plates and pretreated with compound (Compound 1-9 individually) for 1 h, and then induced with 100 ng/mL LPS for 18-24 h. Cytokines in the media were measured according to MesoScale protocol. Negative control wells were treated with DMSO. Compound activity is measured as a percentage of LPS-induced activity. “Rev” is lenalidomide.
(§1) Frozen primary blood mononuclear cells (PBMCs) and frozen CD14+ mobilized peripheral blood monocytes were purchased from AllCells. Cells were quick thawed, and washed 1-time with RPMI-1640/10% FBS/1% Penicillin/1% Streptomycin and plated in 96-well plates at 200,000 cells per well. Cells were pretreated with DMSO only, Compound 5013 (lenolidamide) or the indicated compound for 1 h and then induced with 100 ng/mL lipopolysaccharide (LPS) for 18-24 h. The supernatant was analyzed for IL-1 beta, IL-6, and TNF-α using Meso Scale assay according to manufacturer's protocol. The negative control wells were treated with DMSO.
(§2) PBMCs: AllCells PB003F, Normal Peripheral Blood MNC.
(§3) Media: RPMI 1640/10% FBS/1% Pen-Strep.

Assay [2] has as its system IL-6. Put plainly: IL-6 expression in LPS stimulated PBMCs (Meso Scale). The settings on record: Homo sapiens, PBMC, LPS-stimulated PBMCs; for inhibition at 0.1 µM: compound concentration 0.1 μM. In kind it is cell-based, human. How it is done:
FIGS. 6 and 9B are graphs showing IL-6 expression in LPS stimulated peripheral blood mononuclear cells (PBMCs). PBMCs were plated in 96-well plates and pretreated with compound (Compound 1-9 individually) for 1 h, and then induced with 100 ng/mL LPS for 18-24 h. Cytokines were measured according to MesoScale protocol. Negative control wells were treated with DMSO. Compound activity was measured as a percentage of LPS-induced activity. “Rev” is lenalidomide.
as §1, §2, §3

In assay [3] the test system is TNF-α. Description: TNF-α expression in LPS stimulated PBMCs (Meso Scale). The settings on record: Homo sapiens, PBMC; for inhibition at 0.1 µM: compound concentration 0.1 μM. Type of assay: cell-based, human. How it is done:
FIGS. 7 and 9C are graphs showing TNF-a expression in LPS stimulated peripheral blood mononuclear cells (PBMCs). PBMCs were plated in 96-well plates and pretreated with compound (Compound 1-9 individually) for 1 h, and then induced with 100 ng/mL LPS for 18-24 h. Cytokines in the media were measured according to MesoScale protocol. The negative control wells were treated with DMSO. Compound activity is measured as a percentage of LPS-induced activity. “Rev” is lenalidomide.
as §1, §2, §3

Assay [4] addresses T1, GSPT1 (Homo sapiens, UniProt P15170).
T1 construct: Whole cell extracts were prepared using RIPA buffer according to manufacturer's protocol (Pierce); endogenous in cells
Description: GSPT1 protein levels by Western Blot analysis. In kind it is cell-based. The settings on record: DMSO = 100.00; for remaining activity at 0.1 µM: 100 nM compound concentration; for remaining activity at 1 µM: 1 μM compound concentration. As for the experimental part:
Cells were lysed using RIPA Buffer (Pierce) and a Western Blot analysis was performed using anti-GSPT1 and anti-β-actin antibodies. FIG. 11B is a graph showing the expression levels of GSPT1 protein in Molm-13 (AML) cells. Protein expression levels were measured using the LiCor Odyssey instrumentation and methods.
Western Blot Protocol: Cell lines were grown in RPMI 1640 supplemented with streptomycin, penicillin and 10% fetal bovine serum.
Cells were cultured at approximately 10^6 cells per mL and incubated in DMSO or each of the indicated compounds for 6-8 h. Whole cell extracts were prepared using RIPA buffer according to manufacturer's protocol (Pierce). Briefly, 2×10^6 cells were washed once in PBS, the cell pellets were resuspended in RIPA buffer and allowed to incubate for 15 minutes on ice. Cells debris was removed by centrifugation and the cleared whole cell lysates were transferred to new tubes for further analysis.
For Western blot analysis, whole cell protein extracts were separated on 4-12% SDS-polyacrylamide gels, transferred to nitrocellulose, and probed with the indicated primary antibodies. Membranes were subsequently washed and probed with the appropriate IRDye secondary antibodies (LI-COR). The signal was detected using the Odyssey Imaging System (LI-COR).
GSPT1: Rabbit anti-GSPT1 was obtained from Abcam, ab126090 (Cambridge, Eng.)
(In general: A western blot detects proteins with antibodies after separation by electrophoresis.)

Assay [5] relates to H1048 cells. Put plainly: H1048 cell viability (CellTiter-Glo). Type of assay: cell-based. The settings on record: Homo sapiens, NCI-H1048, 72 h, H1048, 3 days, DMSO = 100.00; for viability at 1 µM: 1 μM compound concentration; for viability at 10 µM: 10 μM compound concentration. As for the experimental part:
(§4) FIG. 10A is a graph showing antiproliferative activity in H1048 (SCLC) cells. FIG. 10B is a graph showing antiproliferative activity in Molm-13 (AML) cells. In FIGS. 10A and 10B, the cells were incubated for 72 hrs with Compound 9 at the indicated concentrations or DMSO. Compound activity was measured based on the signal from remaining viable cells.
(§5) Molm-13 cells were cultivated in RPMI-1640 (10% FBS/1% pen-strep) and were plated in white walled 96-well plates at 20,000 cells/well. H1048 cells were cultured in DMEM:F12 media supplemented with 5% fetal bovine serum, insulin, transferrin, sodium selenite, hydrocortisone, β-estradiol, penicillin and streptomycin, and were plated in white walled 96-well plates at 20,000 cells/well. MDA-MB-231 cells were cultured in DMEM media supplemented with 10% fetal bovine serum, penicillin and streptomycin, and were plated in white walled 96-well plates at 10,000 cells/well. Cells were treated with compound or DMSO (0.1%, control) and the cultures were incubated for 3 days at 37° C. and 5% CO2. Following the incubation period, 100 μL of CellTiterGlow (CTG) reagent (CellTiter-Glo® Luminescent Cell Viability Assay, Promega (Madison, Wis.)) was added to each well. Following a 10 min incubation with shaking, luminescence was measured using a Victor Wallac Luminometer.

Assay [6] deals with Molm-13 cells. Put plainly: Molm-13 cell viability (CellTiter-Glo). In kind it is cell-based. The settings on record: Homo sapiens, MOLM-13, read-out: % Inhibition (MOLM-13 Cell Viability); for cytotoxicity at 0.1 µM: compound concentration 0.1 μM. How it is done: as §4, §5
(In general: ATP-based viability assays read luminescence as a measure of living cells.)

For assay [7], the system named is MDA-MB-231 cells. Description: MDA-MB-231 cell viability (CellTiter-Glo). Type of assay: cell-based. To be noted: Homo sapiens, 72 h, 3 days, DMSO = 100.00; for viability at 1 µM: 1 μM compound concentration; for viability at 10 µM: 10 μM compound concentration. As for the experimental part: as §5

T1 sequence (P15170 whole entry): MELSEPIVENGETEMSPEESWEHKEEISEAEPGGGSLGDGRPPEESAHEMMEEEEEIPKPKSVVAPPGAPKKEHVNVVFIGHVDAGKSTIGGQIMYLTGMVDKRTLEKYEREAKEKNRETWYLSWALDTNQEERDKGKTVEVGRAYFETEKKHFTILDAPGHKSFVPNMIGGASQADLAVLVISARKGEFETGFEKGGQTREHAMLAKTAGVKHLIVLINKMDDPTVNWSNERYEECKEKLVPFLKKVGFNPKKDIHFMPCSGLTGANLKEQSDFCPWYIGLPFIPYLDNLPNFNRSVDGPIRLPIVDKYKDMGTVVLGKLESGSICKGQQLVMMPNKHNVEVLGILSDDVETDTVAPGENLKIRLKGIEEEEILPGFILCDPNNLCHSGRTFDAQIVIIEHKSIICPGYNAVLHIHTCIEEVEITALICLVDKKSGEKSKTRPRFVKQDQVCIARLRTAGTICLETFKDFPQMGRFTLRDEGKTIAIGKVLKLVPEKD
T1 sequence (Q96SW2 whole entry, further chain): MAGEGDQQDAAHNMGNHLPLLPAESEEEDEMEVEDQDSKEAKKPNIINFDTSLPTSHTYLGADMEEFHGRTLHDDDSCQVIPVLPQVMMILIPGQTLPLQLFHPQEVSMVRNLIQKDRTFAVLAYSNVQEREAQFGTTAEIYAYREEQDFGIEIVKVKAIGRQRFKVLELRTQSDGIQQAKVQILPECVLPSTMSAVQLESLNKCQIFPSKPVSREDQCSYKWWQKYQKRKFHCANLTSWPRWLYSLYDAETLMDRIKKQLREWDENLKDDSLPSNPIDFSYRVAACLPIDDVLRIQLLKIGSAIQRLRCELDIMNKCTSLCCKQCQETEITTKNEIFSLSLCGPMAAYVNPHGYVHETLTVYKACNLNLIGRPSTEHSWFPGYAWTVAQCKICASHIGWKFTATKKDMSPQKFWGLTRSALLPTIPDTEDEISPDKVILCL
T1 sequence (Q16531 whole entry partner): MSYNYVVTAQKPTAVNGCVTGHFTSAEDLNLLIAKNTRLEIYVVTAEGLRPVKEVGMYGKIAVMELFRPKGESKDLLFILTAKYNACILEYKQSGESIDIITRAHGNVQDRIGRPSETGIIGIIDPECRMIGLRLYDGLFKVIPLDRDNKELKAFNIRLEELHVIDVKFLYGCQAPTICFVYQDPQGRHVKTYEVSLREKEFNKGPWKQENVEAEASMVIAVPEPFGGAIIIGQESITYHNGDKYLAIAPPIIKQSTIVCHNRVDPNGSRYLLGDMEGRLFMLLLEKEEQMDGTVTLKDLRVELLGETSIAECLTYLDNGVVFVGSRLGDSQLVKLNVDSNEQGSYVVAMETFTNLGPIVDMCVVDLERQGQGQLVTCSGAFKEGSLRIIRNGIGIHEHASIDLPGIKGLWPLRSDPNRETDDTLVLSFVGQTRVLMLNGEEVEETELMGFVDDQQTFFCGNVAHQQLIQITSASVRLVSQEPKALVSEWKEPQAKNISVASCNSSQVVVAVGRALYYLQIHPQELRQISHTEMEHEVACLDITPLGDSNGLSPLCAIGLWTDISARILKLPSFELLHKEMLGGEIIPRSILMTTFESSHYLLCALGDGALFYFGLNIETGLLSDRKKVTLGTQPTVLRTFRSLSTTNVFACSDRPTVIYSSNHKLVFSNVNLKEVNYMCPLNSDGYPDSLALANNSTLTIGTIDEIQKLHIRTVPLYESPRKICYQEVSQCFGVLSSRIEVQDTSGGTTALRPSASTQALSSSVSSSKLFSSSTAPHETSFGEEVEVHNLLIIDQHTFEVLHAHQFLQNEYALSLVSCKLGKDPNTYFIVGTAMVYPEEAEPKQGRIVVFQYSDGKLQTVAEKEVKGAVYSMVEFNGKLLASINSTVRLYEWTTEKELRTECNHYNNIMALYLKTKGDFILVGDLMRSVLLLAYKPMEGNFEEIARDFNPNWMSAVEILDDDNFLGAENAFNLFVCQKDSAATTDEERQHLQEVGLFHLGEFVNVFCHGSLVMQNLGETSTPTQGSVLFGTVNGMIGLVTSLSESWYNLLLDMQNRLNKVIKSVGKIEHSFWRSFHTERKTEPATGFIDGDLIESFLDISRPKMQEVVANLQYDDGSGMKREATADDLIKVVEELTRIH

Usually inhibition stands for how much of the control response was suppressed. Broadly, the remaining activity is the share of the control activity or signal that is left under treatment. Lower therefore signals little activity left. In general, viability refers to a read-out of living cells in per cent, often relative to untreated cells. As to `Cc1ccc(NC(=O)NCc2csc3c2CN([C@H]2CCCC(=O)NC2=O)C3=O)cc1Cl` [Compound 45, (S)-1-(3-Chloro-4-methylphenyl)-3-((5-(2,7-dioxoazepan-3-yl)-6-oxo-5,6-dihydro-4H-thieno[2,3-c]pyrrol-3-yl)methyl)urea], the figures for the inhibition at 1 µM in assay [1] (compound concentration 1 μM), in assay [2] (compound concentration 1 μM) and in assay [3] (compound concentration 1 μM) were 19%, 18% and 22%, respectively. The same compound came in with a remaining activity at 0.1 µM in assay [4] of 90.3%. This compound returned a remaining activity at 1 µM in assay [4] of 22.3%. The values for the viability at 1 µM in assay [5] and in assay [7] were 12.7% and 101%, respectively. Also, the viability at 10 µM stood at 9.89% in assay [5] and 46.7% in assay [7]. Further, the cytotoxicity at 1 µM in assay [6] (compound concentration 1 μM) was found to be 59%.

On to `Cc1ccc(NC(=O)NCc2scc3c2CN(C2CCC(=O)NC2=O)C3=O)nc1Cl` (centres unmarked) [Compound 46, 1-(6-Chloro-5-methylpyridin-2-yl)-3-((5-(2,6-dioxopiperidin-3-yl)-4-oxo-5,6-dihydro-4H-thieno[3,4-c]pyrrol-1-yl)methyl)urea], for which the figures for the inhibition at 0.1 µM in assay [1], in assay [2] and in assay [3] were 54%, 85% and 58%, respectively. In addition, the remaining activity at 0.1 µM in assay [4] is 65.2%. This compound also came in with a remaining activity at 1 µM in assay [4] of 4.73%. The figures for the viability at 1 µM in assay [5] and in assay [7] were 9.35% and 29%, respectively. Further, the results for the viability at 10 µM in assay [5] and in assay [7] were 11.5% and 24.1%, respectively. Also, the cytotoxicity at 0.1 µM in assay [6] is 100%.

With `Cc1ccc(NC(=O)NCc2scc3c2CN(C2CCC(=O)NC2=O)C3=O)cc1C(C)C` (centres unmarked) [Compound 47, 1-((5-(2,6-Dioxopiperidin-3-yl)-4-oxo-5,6-dihydro-4H-thieno[3,4-c]pyrrol-1-yl)methyl)-3-(3-isopropyl-4-methylphenyl)urea], the inhibition at 0.1 µM in assay [1] was found to be 99%; in assay [2], 100%; in assay [3], 97%. The compound also displayed a remaining activity at 0.1 µM in assay [4] of 0.64%. The compound also had a remaining activity at 1 µM in assay [4] of 2.61%. The viability at 1 µM in assay [5] amounted to 8.91%; in assay [7] it was 21.8%. Further, the viability at 10 µM worked out at 8.58% in assay [5] and 19.3% in assay [7]. For the same compound, the cytotoxicity at 0.1 µM in assay [6] came to 100%.

`Cc1c(Cl)cc(NC(=O)NCc2scc3c2CN(C2CCC(=O)NC2=O)C3=O)cc1C(C)C` (centres unmarked) [Compound 48, 1-(3-Chloro-5-isopropyl-4-methylphenyl)-3-((5-(2,6-dioxopiperidin-3-yl)-4-oxo-5,6-dihydro-4H-thieno[3,4-c]pyrrol-1-yl)methyl)urea]: the inhibition at 0.1 µM in assay [1] amounted to 96%; in assay [2] it was 100%; in assay [3] it was 92%. In assay [4], the remaining activity at 0.1 µM is 1.46%. Further, in assay [4], the remaining activity at 1 µM came to 3.85%. Also, the figures for the viability at 1 µM in assay [5] and in assay [7] were 9.03% and 22.2%, respectively. Besides, the results for the viability at 10 µM in assay [5] and in assay [7] were 6.89% and 21.7%, respectively. Further, the cytotoxicity at 0.1 µM in assay [6] came out at 100%.

Take `Cc1cc(C)c(NC(=O)NCc2scc3c2CN(C2CCC(=O)NC2=O)C3=O)cc1Cl` (centres unmarked) [Compound 49, 1-(5-Chloro-2,4-dimethylphenyl)-3-((5-(2,6-dioxopiperidin-3-yl)-4-oxo-5,6-dihydro-4H-thieno[3,4-c]pyrrol-1-yl)methyl)urea]: the results for the inhibition at 0.1 µM in assay [1], in assay [2] and in assay [3] were 61%, 87% and 62%, respectively. Also, the remaining activity at 0.1 µM in assay [4] was 11.9%. This compound showed a remaining activity at 1 µM in assay [4] of 20%. Besides, the viability at 1 µM in assay [5] worked out at 7.67%; in assay [7], 24.3%. Also, the viability at 10 µM in assay [5] turned out to be 6.1%; in assay [7] it was 19.7%. The cytotoxicity at 0.1 µM in assay [6] was found to be 100%.

Consider `Cc1ccc(NC(=S)NCc2scc3c2CN(C2CCC(=O)NC2=O)C3=O)cc1Cl` (centres unmarked) [Compound 52, 1-(3-Chloro-4-methylphenyl)-3-((5-(2,6-dioxopiperidin-3-yl)-4-oxo-5,6-dihydro-4H-thieno[3,4-c]pyrrol-1-yl)methyl)thiourea], for which the inhibition at 0.1 µM in assay [1] was found to be 98%; in assay [2], 100%; in assay [3] it was 95%. The compound further showed a remaining activity at 0.1 µM in assay [4] of 0.58%. Besides, in assay [4], the remaining activity at 1 µM stood at 1.05%. Also, the viability at 1 µM stood at 9.22% in assay [5] and 22.4% in assay [7]. Moreover, the figures for the viability at 10 µM in assay [5] and in assay [7] were 10.3% and 20.5%, respectively. The cytotoxicity at 0.1 µM in assay [6] amounted to 99%.

Turning to `Cc1ccc(NC(=O)NCc2scc3c2CN(C2CCC(=O)NC2=O)C3=O)cn1` (centres unmarked) [Compound 53, 1-((5-(2,6-Dioxopiperidin-3-yl)-4-oxo-5,6-dihydro-4H-thieno[3,4-c]pyrrol-1-yl)methyl)-3-(6-methylpyridin-3-yl)urea], the inhibition at 0.1 µM in assay [1] worked out at 60%; in assay [2], 90%; in assay [3], 65%. Also, the remaining activity at 0.1 µM in assay [4] came out at 23.5%. The compound also yielded a remaining activity at 1 µM in assay [4] of 6.18%. In addition, the viability at 1 µM was found to be 8.51% in assay [5] and 27.6% in assay [7]. Further, the figures for the viability at 10 µM in assay [5] and in assay [7] were 8.09% and 21.3%, respectively. Further, the cytotoxicity at 0.1 µM in assay [6] came out at 100%.

On to `Cc1ccc(NC(=O)NCc2scc3c2CN(C2CCC(=O)NC2=O)C3=O)cc1C(F)(F)F` (centres unmarked) [Compound 54, 1-((5-(2,6-Dioxopiperidin-3-yl)-4-oxo-5,6-dihydro-4H-thieno[3,4-c]pyrrol-1-yl)methyl)-3-(4-methyl-3-(trifluoromethyl)phenyl)urea], for which the inhibition at 0.1 µM in assay [1] was 96%; in assay [2], 100%; in assay [3], 93%. The same compound showed a remaining activity at 0.1 µM in assay [4] of 2.25%. Also, the remaining activity at 1 µM in assay [4] was 2.72%. Besides, the results for the viability at 1 µM in assay [5] and in assay [7] were 8.11% and 22.6%, respectively. The viability at 10 µM in assay [5] was determined as 6.12%; in assay [7], 22.4%. The cytotoxicity at 0.1 µM in assay [6] came to 100%.
